≈ marks a conversion by molar mass, not a printed value.
Assays:
Assay in all cases: microbe, parasite or virus in culture
Format in all cases: cell-based, M. tuberculosis
[1] = test system: isoniazid-resistant strain; conditions: Mycobacterium tuberculosis
[2] = test system: ofloxacin-resistant strain; conditions: Mycobacterium tuberculosis
[3] = test system: rifampin-resistant strain; conditions: Mycobacterium tuberculosis
[4] = test system: INH-R2 (isoniazid resistant)
[5] = test system: INH-R1 (isoniazid resistant)
[6] = test system: FQ-R1 (fluoroquinolone resistant); conditions: Mycobacterium tuberculosis
[7] = test system: RIF-R2 (rifampicin resistant); conditions: Mycobacterium tuberculosis
[8] = test system: RIF-R1 (rifampicin resistant); conditions: Mycobacterium tuberculosis

Compound	MIC [1] [µM]	MIC [2] [µM]	MIC [3] [µM]	MIC ([4]; Mycobacterium tuberculosis) [µM]	MIC ([4]; Resistant Isolate INH-R2, isoniazid-sucrose series) [µM]	MIC ([5]; Mycobacterium tuberculosis) [µM]	MIC ([5]; Resistant Isolate INH-R1, isoniazid-sucrose series) [µM]	MIC [6] [µM]	MIC [7] [µM]	MIC [8] [µM]
NCC[C@H](O)C(=O)N[C@@H]1C[C@H](N)[C@@H](O[C@H]2O[C@H](CN)[C@@H](O)[C@H](O)[C@H]2O)[C@H](O)[C@H]1O[C@H]1O[C@H](CO)[C@@H](O)[C@H](N)[C@H]1O [amikacin]	2.05 (≈ 1.2 µg/mL)	0.256 (≈ 0.15 µg/mL)	0.256 (≈ 0.15 µg/mL)							
NNC(=O)c1ccncc1 [Isoniazid (INH), isoniazid]				> 200	>200	> 200	>200			
CO[C@H]1/C=C/O[C@@]2(C)Oc3c(C)c(O)c4c(O)c(c(/C=N/N5CCN(C)CC5)c(O)c4c3C2=O)NC(=O)/C(C)=C\C=C\[C@H](C)[C@H](O)[C@@H](C)[C@@H](O)[C@@H](C)[C@H](OC(C)=O)[C@@H]1C [rifampicin]				0.0075 (≈ 0.00617 µg/mL)		0.02 (≈ 0.0165 µg/mL)		0.017 (≈ 0.014 µg/mL)	> 200	12.4 (≈ 10.2 µg/mL)
